Data: ChEMBL document CHEMBL1138636, “Potent inhibitors of the HIV-1 protease incorporating cyclic urea P1-P2 scaffold” (Bioorg Med Chem Lett, 2004)

The compounds below were run against Human immunodeficiency virus type 1 protease (Human immunodeficiency virus 1, UniProt Q72874) (assay: Potency to inhibit HIV-1 protease).

| SMILES | Ki |
| --- | --- |
| Cc1cc(CN2CC(Cc3ccccc3)N(C[C@@H](O)C[C@@H](Cc3ccccc3)C(=O)NC3c4ccccc4C[C@H]3O)C2=O)cc(C)c1C (stereo not given in full) | 100 nM |
| O=C(NC1c2ccccc2C[C@H]1O)[C@H](Cc1ccccc1)C[C@H](O)CN1C(=O)N(Cc2ccncc2)CC1Cc1ccccc1 (stereo not given in full) | 190 nM |
| C[C@]1(Cc2ccccc2)C[C@H](Cc2ccccc2)N(C[C@@H](O)C[C@@H](Cc2ccccc2)C(=O)N[C@H]2c3ccccc3C[C@H]2O)C1=O | 170 nM |
| CS(=O)(=O)c1ccc(CN2CC(Cc3ccccc3)N(C[C@@H](O)C[C@@H](Cc3ccccc3)C(=O)NC3c4ccccc4C[C@H]3O)C2=O)cc1 (stereo not given in full) | 300 nM |
| O=C(NC1c2ccccc2C[C@H]1O)[C@H](Cc1ccccc1)C[C@H](O)CN1C(=O)N(Cc2ccccc2)CC1Cc1ccccc1 (stereo not given in full) | 1.2 nM |

The remaining compounds from weak to strong by Ki, led by results:

| Ki | SMILES |
| --- | --- |
| 41 nM | O=C(NC1c2ccccc2C[C@H]1O)[C@H](Cc1ccccc1)C[C@H](O)CN1C(=O)N(Cc2ccccn2)CC1Cc1ccccc1 (stereo not given in full) |
| 18 nM | O=C(NC1c2ccccc2C[C@H]1O)[C@H](Cc1ccccc1)C[C@H](O)CN1C(=O)N(Cc2cccnc2)CC1Cc1ccccc1 (stereo not given in full) |
| 5.6 nM | COc1ccc(CN2CC(Cc3ccccc3)N(C[C@@H](O)C[C@@H](Cc3ccccc3)C(=O)NC3c4ccccc4C[C@H]3O)C2=O)cc1 (stereo not given in full) |
| 3.2 nM | O=C(NC1c2ccccc2C[C@H]1O)[C@H](Cc1ccccc1)C[C@H](O)CN1C(=O)N(Cc2cccc(F)c2)CC1Cc1ccccc1 (stereo not given in full) |
| 0.06 nM | O=C(NC1c2ccccc2C[C@H]1O)[C@H](Cc1ccccc1)C[C@H](O)CN1C(=O)[C@@H](Cc2ccccc2)CC1Cc1ccccc1 (stereo not given in full) |
